# System: rhythmic bladder contractions in rats
# Test: Inhibitory effect against rhythmic bladder contractions in rats
# Format: in vivo
# Settings: anesthetized female SD rats, intravenous, dose 0.001 mg/kg body weight
# Procedure: Inhibitory Effect Against Rhythmic Bladder Contractions in Rats
# Female SD rats were anesthetized with an intraperitoneal administration of urethane (1.0 g/kg). A polyethylene tube was inserted from the urethra to the bladder and the tube was fixed by ligation. Then physiological saline was appropriately infused (infusion rate: about 0.2 ml/min., maximum: about 1.5 ml/animal) through the tube to cause rhythmic bladder contractions. The rhythmic bladder contractions were monitored by measuring the intravesical pressure through a polyethylene tube inserted into the bladder. After confirming that stable rhythmic bladder contractions occurred at least 10 times, a vehicle containing a prescribed dose of a test compound was intravenously administration at a dose of 1 ml/kg. In cases where the intravesical pressure, within 10 minutes after the administration of the test compound, decreased to 50% or less of the intravesical pressure immediately […] the administration, the test compound was judged as having inhibitory effect against urinary bladder contractions, and the time period until the intravesical pressure returned to more than 50% was defined as inhibitory time of rhythmic bladder contractions. As the vehicle for administration, physiological saline was used for test compounds 4, 7, 8, 9, 10, 13, 29, 30, 31, 33, 34, 75, 76, 79, 80, 81, 82, 84, 89, 90, 91, 93, 94, 95, 110 and 111, aqueous 10% dimethylsulfoxide (DMSO) solution was used for test compounds 11, 12, 14, 15, 16, 17, 18, 20, 21, 23, 28, 46, 47, 50, 55, 56, 57, 58, 59, 60, 61, 62, 63, 64, 65, 66, 68, 69, 70, 71, 72, 73, 74, 77, 78, 83, 85, 86, 87, 88, 92, 96, 97, 98, 99, 100, […], 103, 104, 105, 106, 107, 108 and […], aqueous 20% dimethylsulfoxide (DMSO) solution was used for test compounds 1, 2, 67 and 101, and aqueous 5% xylitol solution was used for test compounds 5 and 35. The aqueous 10% DMSO solution, aqueous 20% DMSO solution and the aqueous 5% xylitol solution per se, which may influence on the inhibitory time of rhythmic bladder contractions, were also tested at a dose of 1 ml/kg. With any of the compounds, prolongation of the inhibitory time of rhythmic bladder contractions was observed when compared with that obtained in the group to which the vehicle alone was administered.
row,SMILES,Mean Inhibitory Time of Rhythmic Bladder Contractions [min]
1,"O=C1c2ccc(F)cc2C(=O)N1[C@H]1CC[C@@]2(O)[C@H]3Cc4ccc(O)c5c4[C@@]2(CCN3CC2CC2)[C@H]1O5 [Compound 68, N-(17-cyclopropylmethyl-4,5α-epoxy-3,14-dihydroxymorphinan-6α-yl)-4-fluorophthalimide]",18.0

# Same assay, conditions: anesthetized female SD rats, intravenous, dose 0.003 mg/kg body weight
row,SMILES,Mean Inhibitory Time of Rhythmic Bladder Contractions [min]
1,"O=C1c2ccccc2C(=O)N1[C@H]1CC[C@@]2(O)[C@H]3Cc4ccc(O)c5c4[C@@]2(CCN3CC2CC2)[C@H]1O5 [Compound 66, N-(17-cyclopropylmethyl-4,5α-epoxy-3,14-dihydroxymorphinan-6α-yl)-phthalimide]",27.4
2,"O=C1c2cccc(F)c2C(=O)N1[C@H]1CC[C@@]2(O)[C@H]3Cc4ccc(O)c5c4[C@@]2(CCN3CC2CC2)[C@H]1O5 [Compound 67, N-(17-cyclopropylmethyl-4,5α-epoxy-3,14-dihydroxymorphinan-6α-yl)-3-fluorophthalimide]",27.3

# Same assay, conditions: anesthetized female SD rats, intravenous, dose 0.005 mg/kg body weight
row,SMILES,Mean Inhibitory Time of Rhythmic Bladder Contractions [min]
1,"C=CCN1CC[C@]23c4c5ccc(O)c4O[C@H]2[C@@H](N2C(=O)c4cccc(F)c4C2=O)CC[C@@]3(O)[C@H]1C5 [Compound 63, N-(17-allyl-4,5α-epoxy-3,14-dihydroxymorphinan-6α-yl)-3-fluorophthalimide]",16.1

# Same assay, conditions: anesthetized female SD rats, intravenous, dose 0.01 mg/kg body weight
row,SMILES,Mean Inhibitory Time of Rhythmic Bladder Contractions [min]
1,"C=CCN1CC[C@]23c4c5ccc(O)c4O[C@H]2[C@H](N2C(=O)c4cccc(F)c4C2=O)CC[C@@]3(O)[C@H]1C5 [Compound 62, N-(17-allyl-4,5α-epoxy-3,14-dihydroxymorphinan-6β-yl)-3-fluorophthalimide]",15.3
2,"C=CCN1CC[C@]23c4c5ccc(O)c4O[C@H]2[C@@H](N2C(=O)c4ccccc4C2=O)CC[C@@]3(O)[C@H]1C5 [Compound 64, N-(17-allyl-4,5α-epoxy-3,14-dihydroxymorphinan-6α-yl)-phthalimide]",20.8
3,"C=CCN1CC[C@]23c4c5ccc(O)c4O[C@H]2[C@@H](N2C(=O)c4ccc(F)cc4C2=O)CC[C@@]3(O)[C@H]1C5 [Compound 65, N-(17-allyl-4,5α-epoxy-3,14-dihydroxymorphinan-6α-yl)-4-fluorophthalimide]",18.6
4,"CC1=C(C)C(=O)N([C@H]2CC[C@@]3(O)[C@H]4Cc5ccc(O)c6c5[C@@]3(CCN4CC3CC3)[C@H]2O6)C1=O [Compound 76, N-(17-cyclopropylmethyl-4,5α-epoxy-3,14-dihydroxy-morphinan-6α-yl)-2,3-dimethyl-maleimide]",16.7
5,"O=C1C2=C(CCCC2)C(=O)N1[C@@H]1CC[C@@]2(O)[C@H]3Cc4ccc(O)c5c4[C@@]2(CCN3CC2CC2)[C@H]1O5 [Compound 77, N-(17-cyclopropylmethyl-4,5α-epoxy-3,14-dihydroxy-morphinan-6β-yl)-3,4,5,6-tetrahydrophthalimide]",16.6

# Same assay, conditions: anesthetized female SD rats, intravenous, dose 0.03 mg/kg body weight
row,SMILES,Mean Inhibitory Time of Rhythmic Bladder Contractions [min]
1,"C=CCN1CC[C@]23c4c5ccc(O)c4O[C@H]2[C@H](N2C(=O)c4ccc(F)cc4C2=O)CC[C@@]3(O)[C@H]1C5 [Compound 58, N-(17-allyl-4,5α-epoxy-3,14-dihydroxymorphinan-6β-yl)-4-fluorophthalimide]",19.3
2,"C=CCN1CC[C@]23c4c5ccc(O)c4O[C@H]2[C@H](N2C(=O)c4cccc(C)c4C2=O)CC[C@@]3(O)[C@H]1C5 [Compound 60, N-(17-allyl-4,5α-epoxy-3,14-dihydroxymorphinan-6β-yl)-3-methylphthalimide]",19.7
3,"C=CCN1CC[C@]23c4c5ccc(O)c4O[C@H]2[C@@H](N2C(=O)c4cccc(C)c4C2=O)CC[C@@]3(O)[C@H]1C5 [Compound 61, N-(17-allyl-4,5α-epoxy-3,14-dihydroxymorphinan-6α-yl)-3-methylphthalimide]",22.6
4,"C=CCN1CC[C@]23c4c5ccc(O)c4O[C@H]2[C@H](N2C(=O)C4=C(CCCC4)C2=O)CC[C@@]3(O)[C@H]1C5 [Compound 73, N-(17-allyl-4,5α-epoxy-3,14-dihydroxymorphinan-6β-yl)-3,4,5,6-tetrahydrophthalimide]",13.4
5,"C=CCN1CC[C@]23c4c5ccc(O)c4O[C@H]2[C@@H](N2C(=O)C4=C(CCCC4)C2=O)CC[C@@]3(O)[C@H]1C5 [Compound 74, N-(17-allyl-4,5α-epoxy-3,14-dihydroxymorphinan-6α-yl)-3,4,5,6-tetrahydrophthalimide]",24.0

# Same assay, conditions: anesthetized female SD rats, intravenous, dose 0.1 mg/kg body weight
row,SMILES,Mean Inhibitory Time of Rhythmic Bladder Contractions [min]
1,"O=C1/C(=C/c2ccccc2)CCN1[C@@H]1CC[C@@]2(O)[C@H]3Cc4ccc(O)c5c4[C@@]2(CCN3CC2CC2)[C@H]1O5 [Compound 50, 1-(17-cyclopropylmethyl-4,5α-epoxy-3,14-dihydroxy-morphinan-6β-yl)-3-benzylidene-pyrrolidin-2-one]",12.8
2,"O=C1c2cc(Cl)c(Cl)cc2C(=O)N1[C@@H]1CC[C@@]2(O)[C@H]3Cc4ccc(O)c5c4[C@@]2(CCN3CC2CC2)[C@H]1O5 [Compound 55, N-[17-(cyclopropylmethyl)-4,5α-epoxy-3,14-dihydroxymorphinan-6β-yl]-4,5-dichlorophthaimide]",15.0
3,"C=CCN1CC[C@]23c4c5ccc(O)c4O[C@H]2[C@H](N2C(=O)c4ccc(C)cc4C2=O)CC[C@@]3(O)[C@H]1C5 [Compound 56, N-(17-allyl-4,5α-epoxy-3,14-dihydroxymorphinan-6β-yl)-4-methylphthalimide]",13.7
4,"C=CCN1CC[C@]23c4c5ccc(O)c4O[C@H]2[C@H](N2C(=O)c4ccc(Cl)cc4C2=O)CC[C@@]3(O)[C@H]1C5 [Compound 57, N-(17-allyl-4,5α-epoxy-3,14-dihydroxymorphinan-6β-yl)-4-chlorophthalimide]",24.2
5,"C=CCN1CC[C@]23c4c5ccc(O)c4O[C@H]2[C@H](N2C(=O)c4cc(Cl)c(Cl)cc4C2=O)CC[C@@]3(O)[C@H]1C5 [Compound 59, N-(17-allyl-4,5α-epoxy-3,14-dihydroxymorphinan-6β-yl)-4,5-dichlorophthalimide]",6.1
6,"O=C1[C@H]2CCCC[C@H]2C(=O)N1[C@@H]1CC[C@@]2(O)[C@H]3Cc4ccc(O)c5c4[C@@]2(CCN3CC2CC2)[C@H]1O5 [Compound 69, N-(17-cyclopropylmethyl-4,5α-epoxy-3,14-dihydroxymorphinan-6β-yl)-hexahydrophthalimide]",15.7
7,"O=C1C(c2ccccc2)=C(c2ccccc2)C(=O)N1[C@@H]1CC[C@@]2(O)[C@H]3Cc4ccc(O)c5c4[C@@]2(CCN3CC2CC2)[C@H]1O5 [Compound 70, N-(17-cyclopropylmethyl-4,5α-epoxy-3,14-dihydroxymorphinan-6β-yl)-2,3-diphenylmaleimide]",8.9
8,"O=C1CC(c2ccccc2)C(=O)N1[C@@H]1CC[C@@]2(O)[C@H]3Cc4ccc(O)c5c4[C@@]2(CCN3CC2CC2)[C@H]1O5 (stereo partly drawn) [Compound 71, N-(17-cyclopropylmethyl-4,5α-epoxy-3,14-dihydroxymorphinan-6β-yl)-2-phenyl-succinimide]",24.9
9,"CC1=C(C)C(=O)N([C@@H]2CC[C@@]3(O)[C@H]4Cc5ccc(O)c6c5[C@@]3(CCN4CC3CC3)[C@H]2O6)C1=O [Compound 75, N-(17-cyclopropylmethyl-4,5α-epoxy-3,14-dihydroxy-morphinan-6β-yl)-2,3-dimethyl-maleimide]",20.2

# Same assay, conditions: anesthetized female SD rats, intravenous, dose 0.3 mg/kg body weight
row,SMILES,Mean Inhibitory Time of Rhythmic Bladder Contractions [min]
1,"O=C1C(Cc2ccccc2)CCN1[C@H]1CC[C@@]2(O)[C@H]3Cc4ccc(O)c5c4[C@@]2(CCN3CC2CC2)[C@H]1O5 (stereo partly drawn) [Compound 35, 1-(17-cyclopropylmethyl-4,5α-epoxy-3,14-dihydroxy-morphinan-6α-yl)-3-benzyl-pyrrolidin-2-one]",29.9

# Same assay, conditions: anesthetized female SD rats, intravenous, dose 1.0 mg/kg body weight
row,SMILES,Mean Inhibitory Time of Rhythmic Bladder Contractions [min]
1,"O=C1CCCN1[C@@H]1CC[C@@]2(O)[C@H]3Cc4ccc(O)c5c4[C@@]2(CCN3CC2CC2)[C@H]1O5 [Compound 46, 1-(17-cyclopropylmethyl-4,5α-epoxy-3,14-dihydroxy-morphinan-6β-yl)-pyrrolidin-2-one]",20.0
2,"O=C1C(Cc2ccccc2)CCN1[C@@H]1CC[C@@]2(O)[C@H]3Cc4ccc(O)c5c4[C@@]2(CCN3CC2CC2)[C@H]1O5 (stereo partly drawn) [Compound 47, 1-(17-cyclopropylmethyl-4,5α-epoxy-3,14-dihydroxy-morphinan-6β-yl)-3-benzyl-pyrrolidin-2-one]",21.8

# Reference: US7320984B2, “Remedies or preventives for urinary frequency or urinary incontinence and morphinan derivatives having nitrogen-containing heterocyclic group” (Toray Industries, Inc., priority 2002, dated 2008)
